Measured values reported in patent publication US11572399B2, “Long-acting GIP peptide analogues” (University of Copenhagen, priority 2017, dated 2023).
Peptide text beside a SMILES is read from it. * marks the point of attachment. C16 diacid = O=C(O)CCCCCCCCCCCCCCC(=O)*

Assays:
human GIP receptor [1] = target: T1, human GIP receptor (Homo sapiens, UniProt P48546); test: cAMP accumulation assay, antagonism of a GIP-mediated cAMP response (50-80% of max); format: cell-based; conditions: for Fold change of IC50 versus GIP(5-30)NH2: fold change of IC50 from GIP(5-30)NH2
T1 construct: host or cells: COS-7, transient transfection (calcium phosphate), cDNA in pCMV-Script
T1 sequence (P48546 22-466): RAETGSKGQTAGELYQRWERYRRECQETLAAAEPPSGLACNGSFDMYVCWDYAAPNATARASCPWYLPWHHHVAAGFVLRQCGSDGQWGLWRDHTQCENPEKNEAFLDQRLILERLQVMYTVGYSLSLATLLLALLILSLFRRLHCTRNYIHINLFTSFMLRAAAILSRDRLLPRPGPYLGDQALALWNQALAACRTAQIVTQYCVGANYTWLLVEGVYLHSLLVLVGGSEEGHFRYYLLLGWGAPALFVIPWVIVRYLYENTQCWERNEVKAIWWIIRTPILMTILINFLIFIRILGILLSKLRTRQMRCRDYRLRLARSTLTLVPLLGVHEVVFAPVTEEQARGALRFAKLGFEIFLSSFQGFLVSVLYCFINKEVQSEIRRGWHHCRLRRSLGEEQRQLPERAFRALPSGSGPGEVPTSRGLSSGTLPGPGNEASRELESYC
Procedure: The day after, the cells were washed twice with Hepes buffered saline (HBS) buffer and incubated with HBS and 1 mM 3-isobutyl-1-methylxanthine (IBMX) for 30 min at 37° C. […] The HitHunter™ cAMP XS assay (DiscoveRx) was carried out according to the manufacturer's instructions.

human GIP receptor [2] = target: T1, human GIP receptor; test: 125I-human GIP competition binding assay, in the presence and absence of 2% HSA; conditions: for Fold change HSA (2%)/Casein (0.1%): IC50 (plus HSA)/IC50 (minus HSA); for Binding (+/−HSA) Fold: fold change +HSA/−HSA; for Ki: absence of HSA;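 on all read-outs here: nonspecific binding taken as radioligand bound to untransfected cells, IC50 obtained from nonlinear regression fits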
human GIP receptor [3] = target: T1, human GIP receptor; test: cAMP accumulation assay, agonism (ligand alone); format: cell-based; conditions: Table 1; for Emax: COS-7, intrinsic cAMP activity, COS-7 cells; for EC50: given as log EC50 (negative sign), read-out: cAMP agonism EC50 (log) (converted)
[4] = binding in 0.1% casein (absence of HSA), log value, read-out: logIC50 0.1% casein (converted)
[5] = binding in presence of 2% HSA, read-out: logIC50 2% HSA (converted)
[6] = heterologous competition binding, transiently transfected COS-7 cells expressing the human GIP receptor, read-out: Binding
[7] = transiently transfected COS-7 cells, Table 1 and text, read-out: cAMP antagonism nM (IC50, antagonistic potency)
[8] = antagonism of GIP-mediated cAMP response, COS-7 cells, read-out: cAMP accumulation IC50

## CC[C@H](C)[C@H](NC(=O)[C@H](CO)NC(=O)[C@H](CCCCNC(=O)CCCCCCCCCCCCCCC(=O)O)NC(=O)[C@H](CC(=O)O)NC(=O)[C@H](CO)NC(=O)[C@@H](NC(=O)[C@H](Cc1ccccc1)NC(=O)[C@@H](N)[C@@H](C)O)[C@@H](C)CC)C(=O)N[C@@H](C)C(=O)N[C@@H](CCSC)C(=O)N[C@@H](CC(=O)O)C(=O)N[C@@H](CCCCN)C(=O)N[C@H](C(=O)N[C@@H](Cc1c[nH]cn1)C(=O)N[C@@H](CCC(N)=O)C(=O)N[C@@H](CCC(N)=O)C(=O)N[C@@H](CC(=O)O)C(=O)N[C@@H](Cc1ccccc1)C(=O)N[C@H](C(=O)N[C@@H](CC(N)=O)C(=O)N[C@@H](Cc1c[nH]c2ccccc12)C(=O)N[C@@H](CC(C)C)C(=O)N[C@@H](CC(C)C)C(=O)N[C@@H](C)C(=O)N[C@@H](CCC(N)=O)C(=O)N[C@@H](CCCCN)C(N)=O)C(C)C)[C@@H](C)CC [AT172, [hGIP(5-30)NH2[Y10K]-C16diacid/10]] (H-TFISDK(C16 diacid)SIAMDKIHQQDFVNWLLAQK-NH2; N-terminus assumed)
Human GIP receptor [1]
  Fold change of IC50 versus GIP(5-30)NH2: 14.1
Human GIP receptor [2]
  Fold change HSA (2%)/Casein (0.1%): 3.8
  Binding (+/−HSA) Fold: 2.8
Human GIP receptor [2]; [4]
  IC50: 251 nM
Human GIP receptor [2]; [5]
  IC50: 955 nM
Human GIP receptor [2]; [6]
  IC50: 252 nM
Human GIP receptor [3]
  Emax: 0%

## CC[C@H](C)[C@H](NC(=O)[C@H](CCCCNC(=O)CCCCCCCCCCCCCCC(=O)O)NC(=O)[C@H](Cc1ccc(O)cc1)NC(=O)[C@H](CC(=O)O)NC(=O)[C@H](CO)NC(=O)[C@@H](NC(=O)[C@H](Cc1ccccc1)NC(=O)[C@@H](N)[C@@H](C)O)[C@@H](C)CC)C(=O)N[C@@H](C)C(=O)N[C@@H](CCSC)C(=O)N[C@@H](CC(=O)O)C(=O)N[C@@H](CCCCN)C(=O)N[C@H](C(=O)N[C@@H](Cc1c[nH]cn1)C(=O)N[C@@H](CCC(N)=O)C(=O)N[C@@H](CCC(N)=O)C(=O)N[C@@H](CC(=O)O)C(=O)N[C@@H](Cc1ccccc1)C(=O)N[C@H](C(=O)N[C@@H](CC(N)=O)C(=O)N[C@@H](Cc1c[nH]c2ccccc12)C(=O)N[C@@H](CC(C)C)C(=O)N[C@@H](CC(C)C)C(=O)N[C@@H](C)C(=O)N[C@@H](CCC(N)=O)C(=O)N[C@@H](CCCCN)C(N)=O)C(C)C)[C@@H](C)CC [AT173, [hGIP(5-30)NH2[S11K]-C16diacid/11]] (H-TFISDYK(C16 diacid)IAMDKIHQQDFVNWLLAQK-NH2; N-terminus assumed)
Human GIP receptor [1]
  Ability to antagonize the GIP-mediated cAMP response (in words): highest antagonistic potencies
  Fold change of IC50 versus GIP(5-30)NH2: 0.3
Human GIP receptor [1]; [7]
  IC50: 10 nM
Human GIP receptor [2]
  Fold change HSA (2%)/Casein (0.1%): 7.4
  Ki: 6 nM
  Binding (+/−HSA) Fold: 9.7
Human GIP receptor [2]; [4]
  IC50: 7.94 nM
Human GIP receptor [2]; [6]
  IC50: 8 nM
Human GIP receptor [2]; presence vs absence of 2% HSA, proxy for albumin binding
  Fold change in affinity, IC50 (plus HSA)/IC50 (minus HSA): 7.4 fold
Human GIP receptor [3]
  Emax: 0%

## CC[C@H](C)[C@H](NC(=O)[C@H](CCCCN)NC(=O)[C@H](CC(=O)O)NC(=O)[C@H](CCSC)NC(=O)[C@H](C)NC(=O)[C@H](CCCCNC(=O)CCCCCCCCCCCCCCC(=O)O)NC(=O)[C@H](CO)NC(=O)[C@H](Cc1ccc(O)cc1)NC(=O)[C@H](CC(=O)O)NC(=O)[C@H](CO)NC(=O)[C@@H](NC(=O)[C@H](Cc1ccccc1)NC(=O)[C@@H](N)[C@@H](C)O)[C@@H](C)CC)C(=O)N[C@@H](Cc1c[nH]cn1)C(=O)N[C@@H](CCC(N)=O)C(=O)N[C@@H](CCC(N)=O)C(=O)N[C@@H](CC(=O)O)C(=O)N[C@@H](Cc1ccccc1)C(=O)N[C@H](C(=O)N[C@@H](CC(N)=O)C(=O)N[C@@H](Cc1c[nH]c2ccccc12)C(=O)N[C@@H](CC(C)C)C(=O)N[C@@H](CC(C)C)C(=O)N[C@@H](C)C(=O)N[C@@H](CCC(N)=O)C(=O)N[C@@H](CCCCN)C(N)=O)C(C)C [AT174, [hGIP(5-30)NH2[I12K]-C16diacid/12]] (H-TFISDYSK(C16 diacid)AMDKIHQQDFVNWLLAQK-NH2; N-terminus assumed)
Human GIP receptor [1]
  Ability to antagonize the GIP-mediated cAMP response (in words): highest antagonistic potencies
  Fold change of IC50 versus GIP(5-30)NH2: 0.9
Human GIP receptor [2]
  Fold change HSA (2%)/Casein (0.1%): 3.5
  Binding (+/−HSA) Fold: 6.1
Human GIP receptor [2]; [4]
  IC50: 79.4 nM
Human GIP receptor [2]; [6]
  IC50: 80 nM
Human GIP receptor [3]
  Emax: 0%

## CC[C@H](C)[C@H](NC(=O)[C@H](CO)NC(=O)[C@H](Cc1ccc(O)cc1)NC(=O)[C@H](CC(=O)O)NC(=O)[C@H](CO)NC(=O)[C@@H](NC(=O)[C@H](Cc1ccccc1)NC(=O)[C@@H](N)[C@@H](C)O)[C@@H](C)CC)C(=O)N[C@@H](C)C(=O)N[C@@H](CCCCNC(=O)CCCCCCCCCCCCCCC(=O)O)C(=O)N[C@@H](CC(=O)O)C(=O)N[C@@H](CCCCN)C(=O)N[C@H](C(=O)N[C@@H](Cc1c[nH]cn1)C(=O)N[C@@H](CCC(N)=O)C(=O)N[C@@H](CCC(N)=O)C(=O)N[C@@H](CC(=O)O)C(=O)N[C@@H](Cc1ccccc1)C(=O)N[C@H](C(=O)N[C@@H](CC(N)=O)C(=O)N[C@@H](Cc1c[nH]c2ccccc12)C(=O)N[C@@H](CC(C)C)C(=O)N[C@@H](CC(C)C)C(=O)N[C@@H](C)C(=O)N[C@@H](CCC(N)=O)C(=O)N[C@@H](CCCCN)C(N)=O)C(C)C)[C@@H](C)CC [AT176, [hGIP(5-30)NH2[M14K]-C16diacid/14]] (H-TFISDYSIAK(C16 diacid)DKIHQQDFVNWLLAQK-NH2; N-terminus assumed)
Human GIP receptor [1]; [8]
  IC50: 105 nM
Human GIP receptor [1]
  Fold change of IC50 versus GIP(5-30)NH2: 3.8
Human GIP receptor [1]; [7]
  IC50: 121 nM
Human GIP receptor [2]
  Fold change HSA (2%)/Casein (0.1%): 4.9
  Binding (+/−HSA) Fold: 5.1
Human GIP receptor [2]; [4]
  IC50: 126 nM
Human GIP receptor [2]; [5]
  IC50: 562 nM
Human GIP receptor [2]; [6]
  IC50: 114 nM
Human GIP receptor [3]
  Emax: 12%
  EC50: 0.1 µM

## CC[C@H](C)[C@H](NC(=O)[C@H](CO)NC(=O)[C@H](Cc1ccc(O)cc1)NC(=O)[C@H](CC(=O)O)NC(=O)[C@H](CO)NC(=O)[C@@H](NC(=O)[C@H](Cc1ccccc1)NC(=O)[C@@H](N)[C@@H](C)O)[C@@H](C)CC)C(=O)N[C@@H](C)C(=O)N[C@@H](CCSC)C(=O)N[C@@H](CCCCNC(=O)CCCCCCCCCCCCCCC(=O)O)C(=O)N[C@@H](CCCCN)C(=O)N[C@H](C(=O)N[C@@H](Cc1c[nH]cn1)C(=O)N[C@@H](CCC(N)=O)C(=O)N[C@@H](CCC(N)=O)C(=O)N[C@@H](CC(=O)O)C(=O)N[C@@H](Cc1ccccc1)C(=O)N[C@H](C(=O)N[C@@H](CC(N)=O)C(=O)N[C@@H](Cc1c[nH]c2ccccc12)C(=O)N[C@@H](CC(C)C)C(=O)N[C@@H](CC(C)C)C(=O)N[C@@H](C)C(=O)N[C@@H](CCC(N)=O)C(=O)N[C@@H](CCCCN)C(N)=O)C(C)C)[C@@H](C)CC [AT177, [hGIP(5-30)NH2[D15K]-C16diacid/15]] (H-TFISDYSIAMK(C16 diacid)KIHQQDFVNWLLAQK-NH2; N-terminus assumed)
Human GIP receptor [1]
  Fold change of IC50 versus GIP(5-30)NH2: 1.3
Human GIP receptor [1]; [7]
  IC50: 59 nM
Human GIP receptor [2]
  Fold change HSA (2%)/Casein (0.1%): 3.8
  Ki: 117 nM
  Binding (+/−HSA) Fold: 3.8
Human GIP receptor [2]; [6]
  IC50: 134 nM
Human GIP receptor [3]
  Emax: 30%
  EC50: 0.1 µM

## CC[C@H](C)[C@H](NC(=O)[C@H](CO)NC(=O)[C@H](Cc1ccc(O)cc1)NC(=O)[C@H](CC(=O)O)NC(=O)[C@H](CO)NC(=O)[C@@H](NC(=O)[C@H](Cc1ccccc1)NC(=O)[C@@H](N)[C@@H](C)O)[C@@H](C)CC)C(=O)N[C@@H](C)C(=O)N[C@@H](CCSC)C(=O)N[C@@H](CC(=O)O)C(=O)N[C@@H](CCCCN)C(=O)N[C@@H](CCCCNC(=O)CCCCCCCCCCCCCCC(=O)O)C(=O)N[C@@H](Cc1c[nH]cn1)C(=O)N[C@@H](CCC(N)=O)C(=O)N[C@@H](CCC(N)=O)C(=O)N[C@@H](CC(=O)O)C(=O)N[C@@H](Cc1ccccc1)C(=O)N[C@H](C(=O)N[C@@H](CC(N)=O)C(=O)N[C@@H](Cc1c[nH]c2ccccc12)C(=O)N[C@@H](CC(C)C)C(=O)N[C@@H](CC(C)C)C(=O)N[C@@H](C)C(=O)N[C@@H](CCC(N)=O)C(=O)N[C@@H](CCCCN)C(N)=O)C(C)C [AT178, [hGIP(5-30)NH2[I17K]-C16diacid/17]] (H-TFISDYSIAMDKK(C16 diacid)HQQDFVNWLLAQK-NH2; N-terminus assumed)
Human GIP receptor [1]; [8]
  IC50: 27.5 nM
Human GIP receptor [1]
  Fold change of IC50 versus GIP(5-30)NH2: 1
Human GIP receptor [1]; [7]
  IC50: 33 nM
Human GIP receptor [2]
  Fold change HSA (2%)/Casein (0.1%): 3.0
  Binding (+/−HSA) Fold: 4.5
Human GIP receptor [2]; [4]
  IC50: 63.1 nM
Human GIP receptor [2]; [6]
  IC50: 66 nM
Human GIP receptor [3]
  Emax: 0%
